Results taken from US20120022116A1, “COMPOSITIONS AND METHODS FOR THE TREATMENT OF PATHOLOGICAL CONDITION(S) RELATED TO GPR35 AND/OR GPR35-HERG COMPLEX” (priority 2010, published 2012).

What was measured:
GPR35 [1] = biological target: T1, GPR35 (Homo sapiens, UniProt Q9HC97); test: Ca2+ mobilization assay (Fluo-4) in HEK-GPR35-Gqo5 cells; format: cell-based; conditions: for Ca2+ moblization (HEK-GPR35-Gqo5): HEK293 cells co-expressing GPR35 and Gqo5, Fluo-4, compounds 10 μM; for Ca2+ mobilization signal in cells co-expressing GPR35 and Gqo5: engineered HEK293, 10 μM
T1 construct: myc; expressed in transfected cells; host or cells: HEK293, transient co-transfection (Lipofectamine LTX)
T1 sequence (Q9HC97 whole entry): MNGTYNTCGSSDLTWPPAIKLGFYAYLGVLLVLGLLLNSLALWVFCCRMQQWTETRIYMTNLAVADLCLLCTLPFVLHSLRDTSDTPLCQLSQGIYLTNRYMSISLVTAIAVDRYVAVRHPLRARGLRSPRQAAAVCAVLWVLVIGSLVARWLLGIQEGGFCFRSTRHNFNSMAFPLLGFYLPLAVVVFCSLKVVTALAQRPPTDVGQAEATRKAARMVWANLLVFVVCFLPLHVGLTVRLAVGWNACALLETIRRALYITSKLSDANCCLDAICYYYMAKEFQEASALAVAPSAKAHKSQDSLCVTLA

GPR35 [2] = test: DMR desensitization / antagonism mode against GPR35 agonist-induced DMR in HT29 cells; format: cell-based, human; conditions: HT29 cells pretreated with compound, then GPR35 agonist
hERG channel [3] = biological target: hERG channel (Homo sapiens, UniProt Q12809); test: Automated patch clamp recording of hERG tail current (IonWorks); conditions: hERG tail current ratio post/pre-compound, 50 uM
Chain of hERG channel (Homo sapiens, UniProt Q12809) (Q12809 whole entry): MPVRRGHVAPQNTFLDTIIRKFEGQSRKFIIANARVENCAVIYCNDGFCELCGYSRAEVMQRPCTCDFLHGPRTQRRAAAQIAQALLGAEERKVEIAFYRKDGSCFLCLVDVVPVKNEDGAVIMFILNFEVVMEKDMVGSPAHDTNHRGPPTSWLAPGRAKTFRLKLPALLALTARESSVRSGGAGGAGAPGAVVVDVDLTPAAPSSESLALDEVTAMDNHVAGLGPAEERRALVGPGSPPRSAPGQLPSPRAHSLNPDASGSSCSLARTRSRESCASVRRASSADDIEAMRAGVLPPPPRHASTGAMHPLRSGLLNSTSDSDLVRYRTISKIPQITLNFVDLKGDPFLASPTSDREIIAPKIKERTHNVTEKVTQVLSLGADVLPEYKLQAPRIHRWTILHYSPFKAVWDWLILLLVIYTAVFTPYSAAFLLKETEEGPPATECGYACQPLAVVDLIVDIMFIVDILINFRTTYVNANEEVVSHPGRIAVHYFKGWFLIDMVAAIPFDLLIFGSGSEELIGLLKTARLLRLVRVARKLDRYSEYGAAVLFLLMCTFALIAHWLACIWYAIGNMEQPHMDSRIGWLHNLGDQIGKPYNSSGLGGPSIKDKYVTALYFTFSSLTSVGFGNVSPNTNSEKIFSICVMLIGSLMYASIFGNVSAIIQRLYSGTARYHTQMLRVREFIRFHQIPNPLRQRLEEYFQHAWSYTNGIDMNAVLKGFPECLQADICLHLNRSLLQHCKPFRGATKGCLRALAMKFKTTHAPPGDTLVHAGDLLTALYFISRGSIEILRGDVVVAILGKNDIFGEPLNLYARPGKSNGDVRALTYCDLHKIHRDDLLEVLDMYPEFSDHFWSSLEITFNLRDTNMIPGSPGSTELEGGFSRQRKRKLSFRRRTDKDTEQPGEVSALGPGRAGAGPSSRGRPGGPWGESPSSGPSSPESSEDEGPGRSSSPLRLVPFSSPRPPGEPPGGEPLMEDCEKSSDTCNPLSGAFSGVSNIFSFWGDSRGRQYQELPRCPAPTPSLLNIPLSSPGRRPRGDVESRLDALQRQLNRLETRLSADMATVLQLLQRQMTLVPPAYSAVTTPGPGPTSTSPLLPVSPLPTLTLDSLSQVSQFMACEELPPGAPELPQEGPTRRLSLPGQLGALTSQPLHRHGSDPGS

hERG channel [4] = test: Cross-desensitization DMR assay against hERG activator mallotoxin-induced DMR in HT29 cells; conditions: HT29 cells pretreated with compound, then hERG activator mallotoxin

| Compound | Ca2+ moblization (HEK-GPR35-Gqo5) (GPR35 [1]) | Desenstization to GPR35 agonist (GPR35 [2]) | Electrophysiology (HEK-hERG) (hERG channel [3]) | Desenstization to hERG activator (hERG channel [4]) | Ca2+ mobilization signal in cells co-expressing GPR35 and Gqo5 (GPR35 [1]) |
| --- | --- | --- | --- | --- | --- |
| O=C([O-])c1ccc(-c2ccc(/C=C/c3ccc(N(CCO)CCO)cc3)s2)s1.[Na+] [Compound 29] | active | desenstized | activator | partially desenstized | – |
| O=C(O)c1ccccc1Nc1cccc(C(F)(F)F)c1 [Flufenamic acid] | active | desenstized | activator | desenstized | active |
| Cc1ccc(Cl)c(Nc2ccccc2C(=O)O)c1Cl [Meclofenamate] | inactive | desenstized | – | partially desenstized | – |
| O=C(O)c1cccnc1Nc1cccc(C(F)(F)F)c1 [Niflumic acid] | active | desenstized | activator | – | active |
| O=C(O)c1cc(/N=N/c2ccc(S(=O)(=O)Nc3ccccn3)cc2)ccc1O [Sulfasalazine] | inactive | desenstized | inactive | – | – |
| CC1=C(CC(=O)O)c2cc(F)ccc2/C1=C\c1ccc([S+](C)[O-])cc1 (centres unmarked) [Sulindac] | inactive | desenstized | blocker | – | – |
| O=C1OC(OC(=O)c2cccnc2Nc2cccc(C(F)(F)F)c2)c2ccccc21 (centres unmarked) [Talniflumate] | inactive | desenstized | inactive | – | – |
| Cc1c(Cl)cccc1Nc1ccccc1C(=O)O [Tolfenamic acid] | active | desenstized | blocker | – | active |
| N#C/C(=C\c1ccc(O)c(O)c1)C(N)=O [Tyrphostin 46] | – | desenstized | inactive | inactive | – |
| N#C/C(=C\c1ccc(O)c(O)c1)C(N)=S [Tyrphostin 47] | – | desenstized | activator | partially desenstized | – |
| N#CC(C#N)=C(N)/C(C#N)=C/c1cc(O)c(O)c(O)c1 [Tyrphostin 51] | – | desenstized | inactive | partially desenstized | – |
